Source: US20240409534A1, “CRYSTAL FORM OF METHYLPYRAZOLE-SUBSTITUTED PYRIDOIMIDAZOLE COMPOUND AND PREPARATION METHOD THEREFOR” (priority 2021, published 2024)

Assay: Pharmacokinetic study in rats at 100 mpk (Experimental Embodiment 4)
Assay type: in vivo
Conditions: male SD rats; for AUC(0-inf) / AUC(0-t) / Cmax / Tmax / half-life: Sprague-Dawley, rat, plasma, po, 100 mg/kg
Description: SD rats (overnight fasting, 7 to 11 weeks old)
The compound of the present disclosure or its crystal form of 5% DMSO/10% Kolliphor HS15/85% (0.2% (v/v) Tween80 aqueous solution) at 10 mg/mL was administered by gavage to male SD rats (overnight fasting, 7 to 11 weeks old) at a dose of 100 mg/kg. At 0.25, 0.5, 1.0, 2.0, 4.0, 8.0 and 24 h after administration, approximately 0.2 mL of blood was collected from the jugular vein of the animals in all three groups, placed in an anticoagulant tube added with EDTA-K2, and centrifuged for the separation of plasma. Plasma concentrations were determined by LC-MS/MS method, and relevant pharmacokinetic parameters were calculated using WinNonlin™ Version 6.3 (Pharsight, Mountain View, CA) pharmacokinetic software with non-compartmental model linear-log trapezoidal method.

| SMILES | AUC(0-inf) [µM·h] | AUC(0-t) [µM·h] | Cmax [µM] | Tmax [h] | half-life [h] | Tlast [h] |
| --- | --- | --- | --- | --- | --- | --- |
| CS(=O)(=O)O.Cn1cc(-c2ccn3c(-c4cc(NS(C)(=O)=O)nc(-c5ccc(F)cc5F)c4)cnc3c2)cn1 | 179 | 179 | 22.1 | 2.5 | 1.85 | 24.0 |
| Cl.Cn1cc(-c2ccn3c(-c4cc(NS(C)(=O)=O)nc(-c5ccc(F)cc5F)c4)cnc3c2)cn1 | 32.3 | 32.3 | 8.78 | 0.5 | 2.57 | 24.0 |
| Cn1cc(-c2ccn3c(-c4cc(NS(C)(=O)=O)nc(-c5ccc(F)cc5F)c4)cnc3c2)cn1 [Compound represented by formula (I)] | 12.6 | 12.6 | 3.75 | 0.5 | 2.25 | 24.0 |
